Values of other authors as cited in patent publication US20260263483A1, “LOW DOSE THERAPEUTIC SUPPLEMENT TO MODULATE CYTOKINES” (VIRBAC CORPORATION, priority 2023, published 2026).
Read-outs that look alike come from different tables or passages of the source.

Experiments:
TGF-β1 = conditions: Balb/c 3T3 cells
[1] = rats, administrated orally
Wistar albino rats = conditions: gentamicin-induced renal damage, oral 2, 5 and 10 mg/kg in 14% DMSO
diabetic rats [2] = system: diabetic rats
diabetic rats [3] = conditions: 60 mg/kg p.o., five weeks
[4] = system: hepatic stellate cells (HSCs)

For `C[C@H]1[C@H](C)CC[C@]2(C(=O)O)CC[C@]3(C)C(=CC[C@@H]4[C@@]5(C)CC[C@H](O)C(C)(C)C5CC[C@]43C)[C@H]12` (some centres unmarked) [ursolic acid], the “concentration that inhibits the specific binding of TGF-β 1 by 50%” value (TGF-β1) is listed as 3.0 µg/mL, the “ingested ursolic acid recovered in plasma” value [1] is listed as “about 0.6%” and the reno-protective effect (Wistar albino rats) is listed as “reno-protective effect”. The “protective effects on diabetic rats” value (diabetic rats [2]; high-dose, 50 mg/kg) was “significant protective effects” and the “protective effects on diabetic rats” value (diabetic rats [2]; low-dose, 25 mg/kg) was “significant protective effects”.

For `CC1(C)CC[C@]2(C(=O)O)CC[C@]3(C)C(=CC[C@@H]4[C@@]5(C)CC[C@H](O)C(C)(C)[C@@H]5CC[C@]43C)[C@@H]2C1` [oleanolic acid], the “expression of cytokines and collagen” value (silicotic rats) is listed as “decrease the expression of cytokines and collagen” and the kidney function (diabetic rats [3]) is listed as “ameliorates kidney function”.

For `C=C(C)[C@@H]1CC[C@]2(CO)CC[C@]3(C)[C@H](CC[C@@H]4[C@@]5(C)CC[C@H](O)C(C)(C)[C@@H]5CC[C@]43C)[C@@H]12` [betulin], the “ethanol-induced activation of hepatic stellate cells” value [4] is given as “inhibited”.
